In patent US20260315434A1, “USE OF GUAIACOL SESQUITERPENE LACTONE DERIVATIVES” (NANJING UNIVERSITY OF CHINESE MEDICINE, priority 2023, published 2026):
≈ marks a conversion by molar mass, not a printed value.

What was measured:
[1] = Water solubility testing of compounds (HPLC); conditions: deionized water, 37 °C
[2] = Conversion (release) of prodrug salts to parent compound in HEPES buffer pH 7.4; format: in vitro ADME; conditions: hepes buffer, pH 7.4, HEPES pH 7.4, 37 °C, read-out: Release rate (conversion to Compound 1)
Procedure: (§1) Pharmaceutically acceptable salts of guaiane-type sesquiterpene lactone derivatives were selected and evaluated for their conversion rates to Compound 1 and Compound 83 in plasma and HEPES buffer, with results shown in Tables 2-1, 2-2, 3-1, and 3-2.
Experimental Method: Preparation of HEPES 7.4 Solution: Dissolve 1.6 g NaCl, 0.074 g KCl, 0.027 g Na2HPO4, 0.2 g glucose, and 1 g 4-(2-Hydroxyethyl)piperazine-1-ethanesulfonic acid (HEPES) solution in 90 mL distilled water. Adjust the pH to 7.4 using 0.5 M NaOH, then dilute to a final volume 100 mL with distilled water.
(§2) Sample Analysis: Dissolve 0.6 mg of the compound in 250 μL of deionized water separately. Add 250 μL of mouse serum or HEPES 7.4 solution to the sample, incubate at a constant temperature of 37° C., and collect samples at different time points. Pipette 20 μL of the sample to an EP tube, add 60 μL of methanol, vortex to mix thoroughly, and centrifuge at 12,000 rpm at 4° C. for 10 min. At 1 h, 2 h, 4 h, 8 h, and 12 h respectively, collect the supernatant for HPLC analysis. Inject 10 μL of sample and record the corresponding peak areas. Chromatographic conditions: Hanbang C18 column (4.6×250 mm, 5 μm); mobile phase: acetonitrile: […] ammonium formate solution=60:40; flow rate 1.0 mL/min; detection wavelength 210 nm; column temperature 30° C.

[3] = Conversion (release) of prodrug salts to parent compound in mouse plasma; format: in vitro ADME; conditions: mouse, plasma, 37 °C, read-out: Release rate (conversion to Compound 1)
Procedure: as §1
Plasma Preparation: Collect mouse plasma into an EP tube pre-loaded with sodium heparin, centrifuge at 8000 rpm for 10 minutes at 4° C., and then collect the supernatant.
as §2

T cells / MDSCs = assay: Promotion of T cell proliferation in a co-culture model of MDSCs and T cells; format: cell-based, mouse; conditions: Mus musculus, T-cell, 12 h, read-out: T-cell proliferation rate (%), 1 μM, MDSCs treated 12 hours, co-culture of MDSCs and T cells, compared to the control group
Procedure: Under sterile conditions, the tibia was removed, both ends of the bone were cut, and bone marrow was repeatedly flushed into a 15 mL centrifuge tube using a 1 mL syringe filled with culture medium. Centrifuge at 1600 rpm for 5 min to collect bone marrow cells. […] The spleen cell suspension was then transferred into a 15 mL centrifuge tube. Centrifuge at 1600 rpm for 5 min to collect T cells. Wash twice with 1×PBS. Resuspend the centrifuged T cells in 1 mL PBS and add 1 mL of 10 μM CFDA-SE solution. Incubate at room temperature for 8 min. […] After drug administration, collect MDSC cells into centrifuge tubes. Centrifuge at 1600 rpm for 5 min, remove supernatant, resuspend in 1 mL fresh medium, and plate. Add 1 mL stimulated activated T cells (1:1 ratio) for 48 h co-culture. After incubation, collect cells into centrifuge tubes, wash twice with PBS, and incubate with Fc antibody at room temperature in the dark for 10 min. Add CD3-labeled flow cytometry antibody and incubate at 4° C. in the dark for 30 min. After incubation, wash cells with PBS, resuspend in 300 μL PBS, and analyze by flow cytometry.

Compound: CC(C)N(C[C@@H]1C(=O)O[C@H]2[C@H]1CC[C@@]1(C)C[C@]13CC[C@@](C)(O)[C@H]23)C(C)C [Compound 12]
- Water-solubility [1]: 0.802 mg/mL

Compound: C[C@@]12CC[C@@H]3[C@H](OC(=O)[C@H]3CN3CCC3)[C@@H]3[C@]1(CC[C@@]3(C)O)C2 [Compound 14]
- Water-solubility [1]: 0.460 mg/mL

Compound: C[C@@]12CC[C@@H]3[C@H](OC(=O)[C@H]3CN3CCC(N4CCCCC4)CC3)[C@@H]3[C@]1(CC[C@@]3(C)O)C2 [Compound 16]
- Water-solubility [1]: 0.285 mg/mL

Compound: C[C@@]12CC[C@@H]3[C@H](OC(=O)[C@H]3CN3CCC(N4CCOCC4)CC3)[C@@H]3[C@]1(CC[C@@]3(C)O)C2 [Compound 17]
- Water-solubility [1]: 0.942 mg/mL

Compound: C[C@@]12CC[C@@H]3[C@H](OC(=O)[C@H]3CN3CCCCC3)[C@@H]3[C@]1(CC[C@@]3(C)O)C2 [Compound 24]
- degraded at 1 h [2]: 6.8%
- degraded at 2 h [2]: 15.1%
- degraded at 4 h [2]: 26.7%
- degraded at 8 h [2]: 42.8%
- degraded at 12 h [2]: 54%
- metabolised at 1 h [3]: 7.7%
- metabolised at 2 h [3]: 17.1%
- metabolised at 4 h [3]: 27.7%
- metabolised at 8 h [3]: 47.8%
- metabolised at 12 h [3]: 57.9%
- Water-solubility [1]: 300.5 mg/mL

Compound: C[C@@]12CC[C@@H]3[C@H](OC(=O)[C@H]3CN3CCOCC3)[C@@H]3[C@]1(CC[C@@]3(C)O)C2 [Compound 25]
- degraded at 1 h [2]: 6.8%
- degraded at 2 h [2]: 14.1%
- degraded at 4 h [2]: 26.1%
- degraded at 8 h [2]: 42.8%
- degraded at 12 h [2]: 51.8%
- metabolised at 1 h [3]: 6.8%
- metabolised at 2 h [3]: 14.1%
- metabolised at 4 h [3]: 25.7%
- metabolised at 8 h [3]: 43.8%
- metabolised at 12 h [3]: 51.8%
- solubility ([1]; water, Water-solubility): 342 mg/mL (≈ 979 mM)

Compound: CCCN(CCC)C[C@@H]1C(=O)O[C@H]2[C@H]1CC[C@@]1(C)C[C@]13CC[C@@](C)(O)[C@H]23 [Compound 29]
- degraded at 1 h [2]: 6.8%
- degraded at 2 h [2]: 14.2%
- degraded at 4 h [2]: 24.6%
- degraded at 8 h [2]: 40.2%
- degraded at 12 h [2]: 49.8%
- metabolised at 1 h [3]: 6.8%
- metabolised at 2 h [3]: 14.2%
- metabolised at 4 h [3]: 24.6%
- metabolised at 8 h [3]: 40.2%
- metabolised at 12 h [3]: 49%
- Water-solubility [1]: 289.5 mg/mL

Compound: CCCCN(CCCC)C[C@@H]1C(=O)O[C@H]2[C@H]1CC[C@@]1(C)C[C@]13CC[C@@](C)(O)[C@H]23 [Compound 30]
- degraded at 1 h [2]: 6.6%
- degraded at 2 h [2]: 14.6%
- degraded at 4 h [2]: 23.8%
- degraded at 8 h [2]: 40.8%
- degraded at 12 h [2]: 49.8%
- metabolised at 1 h [3]: 6.6%
- metabolised at 2 h [3]: 13.6%
- metabolised at 4 h [3]: 23.8%
- metabolised at 8 h [3]: 40.8%
- metabolised at 12 h [3]: 48.8%
- Water-solubility [1]: 228.4 mg/mL

Compound: CC(C)N(C[C@@H]1C(=O)O[C@H]2[C@H]1CC[C@@]1(C)C[C@]13CC[C@@](C)(O)[C@H]23)C(C)C [Compound 31]
- degraded at 1 h [2]: 6.7%
- degraded at 2 h [2]: 14%
- degraded at 4 h [2]: 23%
- degraded at 8 h [2]: 41.2%
- degraded at 12 h [2]: 49.5%
- metabolised at 1 h [3]: 6.5%
- metabolised at 2 h [3]: 13.9%
- metabolised at 4 h [3]: 24.4%
- metabolised at 8 h [3]: 40.2%
- metabolised at 12 h [3]: 48.5%
- Water-solubility [1]: 254.6 mg/mL

Compound: C[C@@]12CC[C@@H]3[C@H](OC(=O)[C@H]3CN3CC4CCCC4C3)[C@@H]3[C@]1(CC[C@@]3(C)O)C2 (stereo partly shown) [Compound 32]
- degraded at 1 h [2]: 6.9%
- degraded at 2 h [2]: 15.4%
- degraded at 4 h [2]: 26.2%
- degraded at 8 h [2]: 42.2%
- degraded at 12 h [2]: 51.2%
- metabolised at 1 h [3]: 6.3%
- metabolised at 2 h [3]: 14.4%
- metabolised at 4 h [3]: 25.2%
- metabolised at 8 h [3]: 43.2%
- metabolised at 12 h [3]: 51.4%
- Water-solubility [1]: 100.8 mg/mL

Compound: C[C@@]12CC[C@@H]3[C@H](OC(=O)[C@H]3CN3CCC3)[C@@H]3[C@]1(CC[C@@]3(C)O)C2 [Compound 33]
- degraded at 1 h [2]: 6.9%
- degraded at 2 h [2]: 15.8%
- degraded at 4 h [2]: 26%
- degraded at 8 h [2]: 41.8%
- degraded at 12 h [2]: 51.1%
- metabolised at 1 h [3]: 6.9%
- metabolised at 2 h [3]: 14.8%
- metabolised at 4 h [3]: 26%
- metabolised at 8 h [3]: 42.8%
- metabolised at 12 h [3]: 50.7%
- Water-solubility [1]: 145.5 mg/mL

Compound: C[C@@]12CC[C@@H]3[C@H](OC(=O)[C@H]3CN3CCC4(CCCC4)CC3)[C@@H]3[C@]1(CC[C@@]3(C)O)C2 [Compound 34]
- degraded at 1 h [2]: 7%
- degraded at 2 h [2]: 16.2%
- degraded at 4 h [2]: 27.6%
- degraded at 8 h [2]: 43.6%
- degraded at 12 h [2]: 54.4%
- metabolised at 1 h [3]: 7.8%
- metabolised at 2 h [3]: 17.2%
- metabolised at 4 h [3]: 28.6%
- metabolised at 8 h [3]: 47.6%
- metabolised at 12 h [3]: 58.8%
- Water-solubility [1]: 128.6 mg/mL

Compound: C=C1C(=O)O[C@H]2[C@H]1CCC(C)=C1CC[C@@](C)(OC(=O)N(C)C)[C@@H]12 [Compound 80]
- activation at 1 µM (T cells / MDSCs): 20 to 40%

Compound: C=C1C(=O)O[C@H]2[C@H]1CCC(C)=C1CC[C@@](C)(OC(=O)N(CC)CC)[C@@H]12 [Compound 81]
- activation at 1 µM (T cells / MDSCs): 20 to 40%
